Biological target: T1, CCR2 (Homo sapiens, UniProt P41597)
T1 construct: Membranes were prepared from THP-1 cells; endogenous in cells; host or cells: THP-1 (human acute monocytic leukaemia cells), membrane preparation
Experiment: CCR2 receptor membrane binding assay ([125I]MCP-1, THP-1 membranes, SPA beads)
Conditions: THP-1 cell membranes, [125I]MCP-1 displacement, bound radioactivity after 8 h; read-out: hKi
Description: The above exemplary substances have been tested for binding to CCR2 using a binding assay as outlined herein below:
THP-1 cells (human acute monocytic leukaemia cells) were cultured under standardized conditions at 37° C. and 5% CO2 in a humidified incubator. THP-1 cells were cultivated in RPMI 1640 medium (Gibco 21875) containing 1% MEM-NEAA (Gibso 11140) 2 mM L-glutamine, 1.5 g/L sodium bicarbonate, 4.5 g/L glucose, 10 mM HEPES and 1.0 mM sodium pyruvate, 90%; 10% fetal calf serum (FCS Gibco 10500-064).
Membranes were prepared from THP-1 cells. THP-1 cells were centrifuged at 300×g at 4° C. for 10 min. The cell pellet was resuspended in Phosphate Buffer Saline (PBS, including 10 μM Pefabloc and a protease inhibitor mix ‘complete’, Boehringer Mannheim (1 tablet/50 ml)), to a concentration of […]. The membrane preparation was performed by disrupting the cells by nitrogen […] (at 50 bar, for 1 h) in a “Nitrogen Bombe” (Parr Instrument). Cell debris was removed by centrifugation (800×g at 4° C., 1 min). The supernatant was centrifuged at 80000×g, 4° C. for 30 min to sediment the cell membranes. Usually 50 mg of protein (Bradford assay) were yielded from 1×10E9 cells. The membranes were resuspended in 25 mM HEPES, 25 mM MgCl2, 1 mM CaCl2, 10% Glycerine for storage in aliquots at −80° C. in 25 mM HEPES, 25 mM MgCl2, 1 mM CaCl2, 10% Glycerine and stored at −80° C.
Perkin Elmer NEX 332 Jod 125 MCP-1, Stock: 2200 Ci/mmol solved in 2000 μl assay buffer, stored at −20° C. THP-1 membrane were adjusted with 25 mM HEPES, pH 7.2; 5 mM MgCl2; 0.5 mM CaCl2; 0.2% BSA assay buffer to a concentration of 2.5 μg/15 μl. Amersham Biosciences PVT-WGA Beads (RPNQ0001) were adjusted with assay buffer to a concentration of 0.24 mg/30 μl. For preparation of the membrane-bead-suspension membranes and beads were incubated for 30 min at RT under rotation (60 rpm) with a ratio of 1:2. Test compounds dissolved in 100% DMSO to a concentration of 10 mM and are further diluted with 100% DMSO to 1 mM. All additional compound dilutions were obtained with assay buffer, final 1% DMSO. Compounds, membrane-bead-suspension and [125I]MCP-1 (ca. 25000 cpm/10 μl) were incubated. Bound radioactivity was determined by scintillation counter after 8 h. Determination of affinity of test compounds (dissociation constant hKi) is calculated by iterative fitting of experimental data using the “easy sys” program, which is based on law of mass action (Schittkowski K. (1994), Numerische Mathematik, Vol. 68, 129-142).

T1 sequence (P41597 whole entry): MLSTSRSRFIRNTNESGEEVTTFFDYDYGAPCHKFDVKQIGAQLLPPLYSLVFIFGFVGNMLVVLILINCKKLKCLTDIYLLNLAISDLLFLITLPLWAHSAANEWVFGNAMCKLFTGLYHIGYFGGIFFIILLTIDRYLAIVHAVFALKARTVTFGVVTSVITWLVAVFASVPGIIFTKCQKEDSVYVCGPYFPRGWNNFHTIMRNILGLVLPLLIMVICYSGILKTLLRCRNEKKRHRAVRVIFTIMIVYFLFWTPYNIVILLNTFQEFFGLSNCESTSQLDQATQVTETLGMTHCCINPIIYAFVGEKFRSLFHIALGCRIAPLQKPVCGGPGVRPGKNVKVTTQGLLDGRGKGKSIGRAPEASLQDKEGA

SMILES | Ki [nM]
COC1COCCC1NC1CCN(C(=O)c2ncnc(Oc3cccc(C(F)(F)F)c3)c2C)CC1 (stereo not shown) [Example 1] | 278
COC1COCCC1NC1CCN(C(=O)c2ncnc(OCc3ccc(C(C)(C)C)cc3)c2C)CC1 (stereo not shown) [Example 2] | 21
COC1COCCC1NC1CCN(C(=O)c2ncnc(OCc3ccc(Cl)c(Cl)c3)c2C)CC1 (stereo not shown) [Example 2a] | 8
COC1COCCC1NC1CCN(C(=O)c2ncnc(OCc3ccc(C(F)(F)F)c(Cl)c3)c2C)CC1 (stereo not shown) [Example 2b] | 8
COC1COCCC1NC1CCN(C(=O)c2ncnc(OCc3cc(Cl)cc(Cl)c3)c2C)CC1 (stereo not shown) [Example 2c] | 18
CO[C@@H]1COCC[C@@H]1NC1CCN(C(=O)c2ncnc(OCc3ccc(Cl)c(Cl)c3)c2C)CC1 [Example 2d] | 12
CO[C@H]1COCC[C@H]1NC1CCN(C(=O)c2ncnc(OC[C@H]3CCC[C@@H](c4ccc(OC(F)(F)F)cc4)O3)c2C)CC1 [Example 3] | 45
CO[C@@H]1COCC[C@@H]1NC1CCN(C(=O)c2nccc(OCc3ccc(C(C)(C)C)cc3)c2C)CC1 [Example 3a] | 23
CO[C@H]1COCC[C@H]1NC1CCN(C(=O)c2nccc(OCc3ccc(C(C)(C)C)cc3)c2C)CC1 [Example 3b] | 108
COc1nc(OCc2ccc(C(F)(F)F)cc2)c(C)c(C(=O)N2CCC(N[C@@H]3CCOC[C@@H]3OC)CC2)n1 [Example 3c] | 14
COc1nc(OCc2ccc(C(F)(F)F)cc2)c(C)c(C(=O)N2CCC(N[C@H]3CCOC[C@H]3OC)CC2)n1 [Example 3d] | 4
CO[C@H]1COCC[C@H]1NC1CCN(C(=O)c2nc(C(F)(F)F)nc(OCc3ccc(C(C)(C)C)cc3)c2C)CC1 [Example 3e] | 9
CO[C@@H]1COCC[C@@H]1NC1CCN(C(=O)c2nc(C(F)(F)F)nc(OCc3ccc(C(C)(C)C)cc3)c2C)CC1 [Example 3f] | 7
COc1nc(OCc2ccc(C(C)(C)C)cc2)c(C)c(C(=O)N2CCC(N[C@H]3CCOC[C@H]3OC)CC2)n1 [Example 3g] | 2
COc1nc(OCc2cccc(C(F)(F)F)c2)c(C)c(C(=O)N2CCC(N[C@H]3CCOC[C@H]3OC)CC2)n1 [Example 3h] | 18
COc1nc(OCc2ccc(C(C)(C)C)cc2)c(C)c(C(=O)N2CCC(N[C@@H]3CCOC[C@@H]3OC)CC2)n1 [Example 3i] | 4
COc1nc(OCc2ccc(C(F)(F)F)c(Cl)c2)c(C)c(C(=O)N2CCC(N[C@H]3CCOC[C@H]3OC)CC2)n1 [Example 3j] | 3
COc1nc(OCc2ccc(C(F)(F)F)c(Cl)c2)c(C)c(C(=O)N2CCC(N[C@@H]3CCOC[C@@H]3OC)CC2)n1 [Example 3k] | 8
COc1nc(OCc2ccc(Cl)c(F)c2)c(C)c(C(=O)N2CCC(N[C@H]3CCOC[C@H]3OC)CC2)n1 [Example 3l] | 8
COc1nc(OCc2ccc(Cl)c(Cl)c2)c(C)c(C(=O)N2CCC(N[C@H]3CCOC[C@H]3OC)CC2)n1 [Example 3m] | 10
CO[C@@H]1COCC[C@@H]1NC1CCN(C(=O)c2nc(C(F)(F)F)nc(OCc3ccc(Cl)c(Cl)c3)c2C)CC1 [Example 3n] | 16
CO[C@@H]1COCC[C@@H]1NC1CCN(C(=O)c2nc(C(F)(F)F)nc(OCc3cc(Cl)cc(Cl)c3)c2C)CC1 [Example 3o] | 18
